From patent US6514951B1, “Pour-on formulations effective for the control of internal and external parasites of homothermic animals” (American Cyanamid Company, priority 1989, dated 2003)

Tested on: gastrointestinal nematodes
Test: Influence of simulated rain on reduction of nematode egg output in feces of cattle after pour-on
Format: in vivo, Cooperia, Haemonchus, Ostertagia and Trichostrongylus
Settings: at all times posttreatment regardless of exposure to simulated rainfall
Source text: The objective of this study is to determine the potential effect of rainfall on the efficacy of a pour-on formulation of 23-(O-methyloxime)-LL-F28249α (0.5% w/v) against gastrointestinal nematodes. Formulation 10 reported in Example 2, above, is employed for the study.
Forty-eight mixed beef breed heifers are ranked according to the average of the day −3 and day −2 fecal nematode egg counts and randomly assigned to the following groups of 6 animals each:
All cattle treated with 23-(O-methyloxime)-LL-F28249α pour-on are treated with 0.5 mg 23-(O-methyloxime)-LL-F28249α per kg of body weight. All animals exposed to simulated rain are sprayed with the equivalent of 1 inch of water for 30 minutes.
Following treatment, cattle are housed in outdoor pens which are partially covered by a three sided shed. Cattle remain outdoors during the entire posttreatment period. However, they are confined to a covered portion of the pen when it is raining or rainfall is imminent. […]
The simulated rainfall apparatus used in this trial consists of a 12 feet×12 feet pen with right angle directional spray nozzles in each corner. It is calculated that 89.75 gallons of water applied to this size pen are the equivalent of 1 inch of rain. […]
Fecal samples are taken from all animals on days 7, 14 and 21 posttreatment to evaluate nematode egg counts. The values are expressed as number of eggs per 1 g of feces.

In the case of `CO/N=C1\C[C@]2(C[C@@H]3CC(C/C=C(\C)C[C@@H](C)/C=C/C=C4\CO[C@@H]5[C@H](O)C(C)=C[C@@H](C(=O)O3)[C@]45O)O2)O[C@H](/C(C)=C/C(C)C)[C@H]1C` [23-(O-methyloxime)-LL-F28249α], the “nematode egg counts (in words)” value is reported as “significantly reduces”.
